Experimental data as given in patent US20260167972A1, “AMINO ACID DERIVATIVES AS NOVEL DELIVERY AGENTS FOR FUNCTIONAL DELIVERY OF OLIGONUCLEOTIDES” (University of Rochester, priority 2022, published 2026).

Assays:
[1] = test system: thyroid transcription factor-1 (TTF-1) mRNA expression in A549 lung carcinoma cells; assay: TTF-1 knockdown determination by RT-qPCR; format: cell-based, human; design: knockdown (reduction) of TTF-1 mRNA: concentration or dose not given beside the values; conditions: for Relative TTF-1 mRNA Expression (Normalized to GAPDH) / knockdown (reduction) of TTF-1 mRNA: A549 cells, TTF-1 siRNA; for Relative TTF-1 mRNA Expression (Normalized to GAPDH): 4 h dosing then 48 h incubation; for knockdown (reduction) of TTF-1 mRNA: normalized to GAPDH; for knockdown efficacy group: relative to Lipofectamine
Excerpt: Finally, N-X-Phe derivatives achieved functional delivery of siRNA. To verify delivery of functional siRNA using N-X-Phe-DAP/siRNA particles, relative thyroid transcription factor-1 (TTF-1) mRNA expression normalized to GAPDH in A549 lung carcinoma cells was quantified against knockdown efficiencies with Lipofectamine as a control delivery agent (FIG. 6, Table 3). […] “Scrambled” is control siRNA delivered with Lipofectamine. TTF-1 is delivery of TTF-1 siRNA with Lipofectamine (n=5, *p≤0.05, **p≤0.01, ****p≤0.0001).
Sample Preparation for Cell-Based Experiments: For delivery analysis and functional knockdown, N-X-Phe-DAP derivatives (10 μL, 1 mM) or Lipofectamine 3000 (6 μL) was mixed with TTF-1 siRNA (Santa Cruz Biotechnology sc-36756, 6 μL, 10 μM) in Ultrapure™ DNase/RNase-Free Distilled Water (Invitrogen 10977015) to give a final volume of 100 μL. These mixtures were incubated for 30 minutes at room temperature, followed by dilution into 1×DMEM (Gibco 11965092, 1.9 mL). For cytotoxicity assays, N-X-Phe-DAP derivatives (10 μL, 1 mM) were diluted into 1×DMEM (Gibco 11965092, 1.9 mL).
TTF-1 Knockdown Determination: All knockdown experiments were performed in triplicate. A549 cells were seeded at a density of 1.05×10^5 cells/well in a 96-well plate (200 μL) and grown to 70-90% confluency. Cells were washed twice with 1×PBS (200 μL/well), N-X-Phe-DAP/siRNA samples were added (200 μL/well), and mixtures were incubated for 4 h at 37° C., 5% CO2. After 4 h, the media was removed, cells were washed with 1×PBS, wells were replenished with complete media containing 1×DMEM (Gibco 11965092), 10% fetal bovine serum (FBS, Invitrogen 26140087), and 1× antibiotic-antimycotic (Gibco 15240-062) and incubated an additional 48 h.
Cells were lysed and RNA was extracted using an Aurum Total RNA Mini Kit (Bio-Rad 7326820). In brief, cells were lysed with Lysis solution containing 1% β-mercaptoethanol (200 μL). Lysate was then mixed with 70% EtOH (200 μL) and processed using QIAshredder homogenizer columns (Qiagen 79656). Homogenate was then transferred to Aurum RNA binding columns, washed with Low Stringency Wash Solution, and incubated with diluted DNase I solution (80 μL) for 15 minutes at RT. Samples were then serially washed with High and Low Stringency Wash Solutions and RNA was eluded from the column with Ultrapure™ DNase/RNase-Free Distilled Water (Invitrogen 10977015, 80 μL). Recovered RNA was quantified on a Nanodrop One system and samples were diluted in Ultrapure™ DNase/RNase-Free Distilled Water (Invitrogen 10977015, 2 ng/μL). Relative TTF-1 knockdown was quantified by RT-qPCR
An iScript cDNA Synthesis Kit (Bio-Rad 1708891) was used for reverse transcription of extracted RNA samples. In brief, samples were prepared by combining 5× iScript Reaction Mix (4 μL), iScript Reverse Transcriptase (1 μL), extracted RNA (12.5 μL, 2 ng/μL), and Ultrapure™ DNase/RNase-Free Distilled Water (Invitrogen 10977015, 2.5 μL). Samples were incubated on a Bio-Rad Thermal Cycler using the following protocol: 5 min priming at 25° C., 20 min reverse transcription at 40° C., and 1 min reverse transcriptase inactivation at 95° C. Recovered cDNA was quantified on a Nanodrop One and samples were diluted in Ultrapure™ DNase/RNase-Free Distilled Water (Invitrogen 10977015, 50 ng/μL). Gene expression was quantified utilizing qPCR. A primer stock solution (750 nM, 267 μL, H2O) of TTF-1 (Santa Cruz Biotechnology, sc-36756-PR) or GAPDH (Santa Cruz Biotechnology, sc-35448-PR) primer pairs were prepared by dilution of Primer A (20 μL, 10 μM) and Primer B (20 μL, 10 μM) into Ultrapure™ DNase/RNase-Free Distilled Water (Invitrogen 10977015, 227 μL). Samples were prepared in triplicate by combining 2× iTaq Universal SYBR Green Super Mix (5 μL, Bio-Rad), TTF-1 or GAPDH primer stock (4 μL, 750 nM), and recovered cDNA (1 μL, 50 ng/μL) in sterile qPCR tubes. Quantitative Ct values were obtained by running samples on a Bio-Rad CFX96 Touch using the “PWRUP60” protocol. […]

FITC-siRNA = assay: Slot blot filtration binding affinity assay; conditions: binding to siRNA (FITC-siRNA); average of three measurements ± standard deviation
Procedure: The binding affinity (Kd) of N-X-Phe-DAP derivatives to siRNA was next characterized to determine how the chemical functionality of the Phe derivatives impacts siRNA interactions. Comparative binding affinity (Kd) of N-X-Phe-DAP derivatives to fluorescently labeled FITC-siRNA was determined using a slot blot filtration assay (Table 2). […] Therefore, the decrease in binding affinity of Fmoc-F5-Phe-DAP for siRNA is likely due to competition between siRNA binding and self-assembly.
Slot Blot Binding Affinity Measurements (see FIGS. 39-48): Nitrocellulose (Bio-Rad, #1620112) and nylon membranes (VWR, #95038-400) were soaked in 100 mM Tris-HCl buffer for 20 minutes. The membranes were then stacked on two sheets of Bio-Rad SF thick filter paper (#1620161) in a Bio-Rad SF 48-well slot blot apparatus. 200 μL of 100 mM Tris-HCl buffer was added to each well to test for even vacuum distribution and for membrane rehydration three times. N-X-Phe-DAP derivatives were prepared in concentrations ranging from 4000 μM to 0 μM and incubated with FITC-siRNA (6.5 μL, 1 μM) for 30 minutes in the dark. 40 μL of each sample, in addition to 200 μL Tris-HCl buffer was run in triplicate and the apparatus was covered with aluminum foil for 20 minutes. The vacuum was opened, allowing for samples in the wells to penetrate the membranes. After closing the vacuum, 200 μL of Tris-HCl buffer was added to rinse each well followed by re-opening of the vacuum three times. Membranes were then dried and imaged on Bio-Rad ChemiDoc MS. Fluorescence intensity density measurements were made using Image J. The fraction bound of siRNA was calculated using the following equation, where Initro is the fluorescence intensity measured from the nitrocellulose membrane and Inylon is the fluorescence intensity measured from the nylon membrane:
This equation is as follows where Y is the fraction bound, X is the N-X-Phe-DAP concentration (μM), Bmax is the maximum binding, Kd is the binding affinity, and h is the Hill slope: […]

SMILES: NCCCNC(=O)[C@H](Cc1ccccc1)NC(=O)CCCc1ccc2ccc3cccc4ccc1c2c34 [Pyr-Phe-DAP]
- Relative TTF-1 mRNA Expression (Normalized to GAPDH) [1]: 33.0 ± 2.2
- knockdown (reduction) of TTF-1 mRNA [1]: approximately 70%
- knockdown efficacy group [1]: effective knockdown (slightly improved or similar relative to Lipofectamine)
- Kd (FITC-siRNA): 32 µM

SMILES: CCCCCCC(=O)N[C@@H](Cc1ccccc1)C(=O)NCCCN [Hex-Phe-DAP]
- knockdown efficacy group [1]: ineffective knockdown (less effective than Lipofectamine)
- Kd (FITC-siRNA): 183 ± 9 µM

SMILES: NCCCNC(=O)[C@H](Cc1c(F)c(F)c(F)c(F)c1F)NC(=O)OCC1c2ccccc2-c2ccccc21 [Fmoc-F5-Phe-DAP]
- Relative TTF-1 mRNA Expression (Normalized to GAPDH) [1]: 38.6 ± 4.9
- knockdown (reduction) of TTF-1 mRNA [1]: ~61%
- knockdown efficacy group [1]: effective knockdown (slightly improved or similar relative to Lipofectamine)
- Kd (FITC-siRNA): 217 µM

SMILES: NCCCNC(=O)[C@H](Cc1cccc(F)c1)NC(=O)OCC1c2ccccc2-c2ccccc21 [Fmoc-3F-Phe-DAP]
- Relative TTF-1 mRNA Expression (Normalized to GAPDH) [1]: 51.8 ± 6.6
- knockdown (reduction) of TTF-1 mRNA [1]: ~48%
- Kd (FITC-siRNA): 131 µM

SMILES: NCCCNC(=O)[C@H](Cc1ccccc1)NC(=O)OCc1ccccc1 [Cbz-Phe-DAP]
- Relative TTF-1 mRNA Expression (Normalized to GAPDH) [1]: 30.9 ± 3.0
- knockdown (reduction) of TTF-1 mRNA [1]: approximately 70%
- knockdown efficacy group [1]: effective knockdown (slightly improved or similar relative to Lipofectamine)
- Kd (FITC-siRNA): 97 µM

SMILES: NCCCNC(=O)[C@H](Cc1ccccc1)NC(=O)Cc1cccc2ccccc12 [1-Nap-Phe-DAP]
- Relative TTF-1 mRNA Expression (Normalized to GAPDH) [1]: 13.8 ± 3.7
- knockdown (reduction) of TTF-1 mRNA [1]: 86%
- knockdown efficacy group [1]: highly effective knockdown (dramatically improved relative to Lipofectamine)
- Kd (FITC-siRNA): 293 µM

SMILES: NCCCNC(=O)[C@H](Cc1ccccc1)NC(=O)CC1c2ccccc2-c2ccccc21 [Fm-Phe-DAP]
- Relative TTF-1 mRNA Expression (Normalized to GAPDH) [1]: 37.9 ± 8.3
- knockdown (reduction) of TTF-1 mRNA [1]: ~62%
- knockdown efficacy group [1]: effective knockdown (slightly improved or similar relative to Lipofectamine)
- Kd (FITC-siRNA): 307 ± 34 µM

SMILES: NCCCNC(=O)[C@H](Cc1ccccc1)NC(=O)C1CCCCC1 [Cyc-Phe-DAP]
- knockdown efficacy group [1]: ineffective knockdown (less effective than Lipofectamine)
- Kd (FITC-siRNA): 179 ± 8 µM

SMILES: NCCCNC(=O)[C@H](Cc1ccccc1)NC(=O)Cc1ccc2ccccc2c1 [2-Nap-Phe-DAP]
- Relative TTF-1 mRNA Expression (Normalized to GAPDH) [1]: 13.4 ± 1.4
- knockdown (reduction) of TTF-1 mRNA [1]: 87%
- knockdown efficacy group [1]: highly effective knockdown (dramatically improved relative to Lipofectamine)
- Kd (FITC-siRNA): 186 µM

SMILES: NCCCNC(=O)[C@H](Cc1ccccc1)NC(=O)OCC1c2ccccc2-c2ccccc21 [Fmoc-Phe-DAP]
- Relative TTF-1 mRNA Expression (Normalized to GAPDH) [1]: 17.4 ± 2.1
- knockdown (reduction) of TTF-1 mRNA [1]: 83%
- knockdown efficacy group [1]: highly effective knockdown (dramatically improved relative to Lipofectamine)
- Kd (FITC-siRNA): 159 µM
